Measurements reported in the NIST ThermoML archive (doi:10.1021/je300873x).
± gives the expanded uncertainty stated by the source.

Assay: mn = molality of the nth substance listed, in mol/kg
Conditions: for surface tension liquid-gas: Pendant drop shape; for electrical conductivity: Liquid, Digital conductivity meter

CCCCCCCCCCCC[N+](C)(CCO)CCO.[Br-] [N,N-bis(2-hydroxyethyl)-N-methyldodecan-1-aminium bromide] + O
surface tension liquid-gas (298.15 K, m1 = 0.00097): 68.8 ± 0.01 mN/m | surface tension liquid-gas (298.15 K, m1 = 0.00193): 62.75 ± 0.01 mN/m | surface tension liquid-gas (298.15 K, m1 = 0.00387): 54.86 ± 0.01 mN/m | surface tension liquid-gas (298.15 K, m1 = 0.0058): 48.7 ± 0.01 mN/m | surface tension liquid-gas (298.15 K, m1 = 0.00773): 45.46 ± 0.01 mN/m | surface tension liquid-gas (298.15 K, m1 = 0.00967): 41.58 ± 0.01 mN/m | surface tension liquid-gas (298.15 K, m1 = 0.0116): 39.54 ± 0.01 mN/m | surface tension liquid-gas (298.15 K, m1 = 0.01257): 38.9 ± 0.01 mN/m | surface tension liquid-gas (298.15 K, m1 = 0.0145): 38.74 ± 0.01 mN/m | surface tension liquid-gas (298.15 K, m1 = 0.01644): 38.53 ± 0.01 mN/m | surface tension liquid-gas (298.15 K, m1 = 0.01956): 38.53 ± 0.01 mN/m | surface tension liquid-gas (298.15 K, m1 = 0.0291): 38.45 ± 0.01 mN/m | surface tension liquid-gas (298.15 K, m1 = 0.04849): 38.36 ± 0.01 mN/m | electrical conductivity (298.15 K, m1 = 0.0095): 0.0822 ± 0.0001 S/m | electrical conductivity (298.15 K, m1 = 0.00997): 0.0859 ± 0.0001 S/m | electrical conductivity (298.15 K, m1 = 0.0105): 0.0903 ± 0.0001 S/m | electrical conductivity (298.15 K, m1 = 0.01108): 0.0948 ± 0.0001 S/m | electrical conductivity (298.15 K, m1 = 0.01174): 0.0998 ± 0.0001 S/m | electrical conductivity (298.15 K, m1 = 0.01247): 0.1051 ± 0.0001 S/m | electrical conductivity (298.15 K, m1 = 0.01287): 0.1075 ± 0.0001 S/m | electrical conductivity (298.15 K, m1 = 0.0133): 0.1097 ± 0.0001 S/m | electrical conductivity (298.15 K, m1 = 0.01376): 0.1114 ± 0.0001 S/m | electrical conductivity (298.15 K, m1 = 0.01425): 0.1126 ± 0.0001 S/m | electrical conductivity (298.15 K, m1 = 0.01478): 0.1144 ± 0.0001 S/m | electrical conductivity (298.15 K, m1 = 0.01535): 0.1155 ± 0.0001 S/m | electrical conductivity (298.15 K, m1 = 0.01596): 0.1171 ± 0.0001 S/m | electrical conductivity (298.15 K, m1 = 0.01663): 0.119 ± 0.0001 S/m | electrical conductivity (298.15 K, m1 = 0.01735): 0.1209 ± 0.0001 S/m | electrical conductivity (298.15 K, m1 = 0.01814): 0.1227 ± 0.0001 S/m | electrical conductivity (298.15 K, m1 = 0.01901): 0.1245 ± 0.0001 S/m | electrical conductivity (298.15 K, m1 = 0.01996): 0.1268 ± 0.0001 S/m | electrical conductivity (303.15 K, m1 = 0.00949): 0.091 ± 0.0001 S/m | electrical conductivity (303.15 K, m1 = 0.00996): 0.0952 ± 0.0001 S/m | electrical conductivity (303.15 K, m1 = 0.01049): 0.0996 ± 0.0001 S/m | electrical conductivity (303.15 K, m1 = 0.01107): 0.1049 ± 0.0001 S/m | electrical conductivity (303.15 K, m1 = 0.01172): 0.1117 ± 0.0001 S/m | electrical conductivity (303.15 K, m1 = 0.01245): 0.1161 ± 0.0001 S/m | electrical conductivity (303.15 K, m1 = 0.01285): 0.1192 ± 0.0001 S/m | electrical conductivity (303.15 K, m1 = 0.01328): 0.1216 ± 0.0001 S/m | electrical conductivity (303.15 K, m1 = 0.01374): 0.1236 ± 0.0001 S/m | electrical conductivity (303.15 K, m1 = 0.01423): 0.1258 ± 0.0001 S/m | electrical conductivity (303.15 K, m1 = 0.01476): 0.127 ± 0.0001 S/m | electrical conductivity (303.15 K, m1 = 0.01533): 0.1296 ± 0.0001 S/m | electrical conductivity (303.15 K, m1 = 0.01594): 0.1313 ± 0.0001 S/m | electrical conductivity (303.15 K, m1 = 0.01661): 0.1328 ± 0.0001 S/m | electrical conductivity (303.15 K, m1 = 0.01733): 0.1347 ± 0.0001 S/m | electrical conductivity (303.15 K, m1 = 0.01812): 0.1365 ± 0.0001 S/m | electrical conductivity (303.15 K, m1 = 0.01898): 0.1386 ± 0.0001 S/m | electrical conductivity (303.15 K, m1 = 0.01993): 0.141 ± 0.0001 S/m | electrical conductivity (308.15 K, m1 = 0.00994): 0.1048 ± 0.0001 S/m | electrical conductivity (308.15 K, m1 = 0.01047): 0.1099 ± 0.0001 S/m | electrical conductivity (308.15 K, m1 = 0.01105): 0.1157 ± 0.0001 S/m | electrical conductivity (308.15 K, m1 = 0.0117): 0.1216 ± 0.0001 S/m | electrical conductivity (308.15 K, m1 = 0.01243): 0.1282 ± 0.0001 S/m | electrical conductivity (308.15 K, m1 = 0.01283): 0.1315 ± 0.0001 S/m | electrical conductivity (308.15 K, m1 = 0.01326): 0.1349 ± 0.0001 S/m | electrical conductivity (308.15 K, m1 = 0.01372): 0.1375 ± 0.0001 S/m | electrical conductivity (308.15 K, m1 = 0.01421): 0.1402 ± 0.0001 S/m | electrical conductivity (308.15 K, m1 = 0.01473): 0.1421 ± 0.0001 S/m | electrical conductivity (308.15 K, m1 = 0.0153): 0.1447 ± 0.0001 S/m | electrical conductivity (308.15 K, m1 = 0.01591): 0.1463 ± 0.0001 S/m | electrical conductivity (308.15 K, m1 = 0.01658): 0.1485 ± 0.0001 S/m | electrical conductivity (308.15 K, m1 = 0.0173): 0.151 ± 0.0001 S/m | electrical conductivity (308.15 K, m1 = 0.01809): 0.153 ± 0.0001 S/m | electrical conductivity (308.15 K, m1 = 0.01895): 0.1563 ± 0.0001 S/m | electrical conductivity (308.15 K, m1 = 0.0199): 0.1591 ± 0.0001 S/m | electrical conductivity (313.15 K, m1 = 0.01045): 0.1198 ± 0.0001 S/m | electrical conductivity (313.15 K, m1 = 0.01103): 0.1258 ± 0.0001 S/m | electrical conductivity (313.15 K, m1 = 0.01168): 0.1323 ± 0.0001 S/m | electrical conductivity (313.15 K, m1 = 0.01241): 0.14 ± 0.0001 S/m | electrical conductivity (313.15 K, m1 = 0.01281): 0.1439 ± 0.0001 S/m | electrical conductivity (313.15 K, m1 = 0.01324): 0.1478 ± 0.0001 S/m | electrical conductivity (313.15 K, m1 = 0.01369): 0.1515 ± 0.0001 S/m | electrical conductivity (313.15 K, m1 = 0.01418): 0.155 ± 0.0001 S/m | electrical conductivity (313.15 K, m1 = 0.01471): 0.1577 ± 0.0001 S/m | electrical conductivity (313.15 K, m1 = 0.01527): 0.1602 ± 0.0001 S/m | electrical conductivity (313.15 K, m1 = 0.01589): 0.1631 ± 0.0001 S/m | electrical conductivity (313.15 K, m1 = 0.01655): 0.1654 ± 0.0001 S/m | electrical conductivity (313.15 K, m1 = 0.01727): 0.168 ± 0.0001 S/m | electrical conductivity (313.15 K, m1 = 0.01805): 0.1707 ± 0.0001 S/m | electrical conductivity (313.15 K, m1 = 0.01891): 0.1726 ± 0.0001 S/m | electrical conductivity (318.15 K, m1 = 0.01043): 0.1298 ± 0.0001 S/m | electrical conductivity (318.15 K, m1 = 0.01101): 0.1366 ± 0.0001 S/m | electrical conductivity (318.15 K, m1 = 0.01165): 0.1438 ± 0.0001 S/m | electrical conductivity (318.15 K, m1 = 0.01238): 0.1522 ± 0.0001 S/m | electrical conductivity (318.15 K, m1 = 0.01278): 0.1567 ± 0.0001 S/m | electrical conductivity (318.15 K, m1 = 0.01321): 0.1612 ± 0.0001 S/m | electrical conductivity (318.15 K, m1 = 0.01367): 0.166 ± 0.0001 S/m | electrical conductivity (318.15 K, m1 = 0.01415): 0.1704 ± 0.0001 S/m | electrical conductivity (318.15 K, m1 = 0.01468): 0.1739 ± 0.0001 S/m | electrical conductivity (318.15 K, m1 = 0.01524): 0.177 ± 0.0001 S/m | electrical conductivity (318.15 K, m1 = 0.01585): 0.1806 ± 0.0001 S/m | electrical conductivity (318.15 K, m1 = 0.01651): 0.1838 ± 0.0001 S/m | electrical conductivity (318.15 K, m1 = 0.01723): 0.1864 ± 0.0001 S/m | electrical conductivity (318.15 K, m1 = 0.01802): 0.1895 ± 0.0001 S/m | electrical conductivity (318.15 K, m1 = 0.01887): 0.1932 ± 0.0001 S/m | electrical conductivity (318.15 K, m1 = 0.01983): 0.1976 ± 0.0001 S/m | electrical conductivity (323.15 K, m1 = 0.0104): 0.1411 ± 0.0001 S/m | electrical conductivity (323.15 K, m1 = 0.01098): 0.1472 ± 0.0001 S/m | electrical conductivity (323.15 K, m1 = 0.01163): 0.1554 ± 0.0001 S/m | electrical conductivity (323.15 K, m1 = 0.01236): 0.1644 ± 0.0001 S/m | electrical conductivity (323.15 K, m1 = 0.01275): 0.169 ± 0.0001 S/m | electrical conductivity (323.15 K, m1 = 0.01318): 0.1743 ± 0.0001 S/m | electrical conductivity (323.15 K, m1 = 0.01363): 0.1794 ± 0.0001 S/m | electrical conductivity (323.15 K, m1 = 0.01412): 0.1851 ± 0.0001 S/m | electrical conductivity (323.15 K, m1 = 0.01465): 0.1902 ± 0.0001 S/m | electrical conductivity (323.15 K, m1 = 0.01521): 0.1949 ± 0.0001 S/m | electrical conductivity (323.15 K, m1 = 0.01582): 0.1998 ± 0.0001 S/m | electrical conductivity (323.15 K, m1 = 0.01648): 0.2018 ± 0.0001 S/m | electrical conductivity (323.15 K, m1 = 0.01719): 0.2068 ± 0.0001 S/m | electrical conductivity (323.15 K, m1 = 0.01798): 0.2118 ± 0.0001 S/m | electrical conductivity (323.15 K, m1 = 0.01883): 0.2128 ± 0.0001 S/m | electrical conductivity (323.15 K, m1 = 0.01977): 0.2199 ± 0.0001 S/m

O [water] + CCCCCCCCCCCC[N+](C)(C)CCO.[Br-]
surface tension liquid-gas (298.15 K, m2 = 0): 72.17 ± 0.64 mN/m

O [water] + CCCCCCCCCCCCCCCC[N+](C)(C)CCO.[Br-]
surface tension liquid-gas (298.15 K, m2 = 0): 72.17 ± 0.64 mN/m
